Results: patent US8497376B2, “Inhibitors of c-fms kinase” (Janssen Pharmaceutica N.V., priority 2007, dated 2013)
Counter-ions that a name gives are not always drawn. Like-named read-outs stand apart in the source and are kept apart here.

Legend:
[1] = test system: mouse bone-marrow derived macrophages; test: CSF-1-driven mouse bone-marrow derived macrophages assay (BrDU incorporation); type: cell-based; details: CSF-1-driven proliferation, 30 hrs culture
Protocol: Macrophages were derived by culturing mouse bone marrow in alpha-MEM supplemented with 10% FCS and 50 ng/ml recombinant mouse CSF-1 in bacteriologic dishes. On the sixth day, macrophages were detached from dishes, washed, and resuspended to 0.05 million cells/ml in alpha-MEM containing 10% FCS. One hundred ul of cell suspension were distributed per well into 96 well culture plates. Wells were further supplemented with the addition of 50 ul media containing 15 ng/ml CSF-1, 3 uM Indomethacin, and 3× of a dilution series of test compounds. The cells were cultured for 30 hrs at 37 degrees and 5% CO2. During the final six hours, cultures were supplemented with an additional 30 ul of media containing a 1:500 dilution of bromodeoxyuridine (BrDU). At the end of the culture period, the plates were spun at 1000 RPM for 1 minute and 130 ul of media was removed with a pipet and replaced with 150 ul of fixative solution for 1 hour@room temperature. The fixative was then dispelled from the plates and the plates allowed to air dry. Incorporation of BrDU into the fixed, dried cells was quantified using a specific ELISA.

[2] = test system: streptococcal cell wall (SCW) model of arthritis in rats; test: SCW arthritis in rats (chronic phase, therapeutic dosing); type: in vivo, rat; details: for Number of steps taken using hind limbs in a thirty second observation period: average of three rats
From the text: Purpose: A polyarthritis occurs in female Lewis rats following i.p. administration of streptococcal cell wall (SCW) components. The model has an acute non-erosive phase (days 3-7) that is complement and neutrophil dependent and which resolves. A chronic erosive phase begins at about day ten and is dependent on the development of specific T cell immunity to SCW, and possibly to self-antigens. The SCW-induced model has been used less frequently for pharmaceutical testing than the adjuvant-induced or collagen-induced models of arthritis, but each model predicts accurately the anti-inflammatory potential of TNF-inhibitors. The chronic phase of the SCW model is macrophage dependent.
Method: Female Lewis rats (80-100 gm each) were purchased from Charles River. Streptococcal cell wall peptidoglycan-polysaccharide polymers (PG-PS 10S) were purchased from BD (Cat#210866). PG-PS 10S was vortexed for 30 seconds to thoroughly mix the material and sonicated at low energy levels (level 6) for 3 min with a probe type sonicator prior to injection. On day 0, sixty rats were anesthetized using isoflurane, and injected i.p. with 15 μg of rhamnose/gram body weight (BW) in the lower left quadrant of the abdomen. Ten rats were treated in a similar manner with sterile saline.
(§1) Chronic, T-cell dependent, erosive arthritis was severe by day 20 at which time twice daily oral dosing was commenced until sacrificed on day 32 to determine if the compound of Example 15 (hereinafter, Compound A) can reverse established disease.
(§2) Compound A was formulated in 5% solutol, 5% ethanol, 90% water. The dose volume was 5 ml/kg.
Left and right hind ankles of each rat were measured with calipers every day for the first six days (post-injection) and then at least every two or three days for the remainder of the study. Ankles were assigned a clinical score based on erythema and swelling as follows: 1=ankle only; 2=ankle and proximal half of tarsal joint; 3=ankle and entire tarsal joint; 4=involvement of the entire paw including digits. Animal scores represented the sum of the two hind paws.
Disease reversal was accompanied by restoration of function. To assess function, three representative rats per group were videotaped for thirty seconds on days 19 and 32, and steps taken with hind limbs were counted and reported in Table 3. On day 19 following SCW, rats ambulated primarily using front paws. Hind paws were nearly immobilized.

in vivo = details: Lewis, rat, po
Protocol: as §1, §2
Exposure: Two hours following the last dose of 3, 10 and 20 mpk, plasma levels of Compound A were 247±22, 802±35, and 1475±70 ng/ml, respectively (mean±SEM).

c-fms = c-fms (Homo sapiens (Human), UniProt P07333); test: Autophosphorylation fluorescence polarization competition immunoassay for c-fms inhibition; type: biochemical; details: 10 nM c-fms, 1 mM ATP; average of three independent measurements
Sequence of c-fms (P07333 20-972): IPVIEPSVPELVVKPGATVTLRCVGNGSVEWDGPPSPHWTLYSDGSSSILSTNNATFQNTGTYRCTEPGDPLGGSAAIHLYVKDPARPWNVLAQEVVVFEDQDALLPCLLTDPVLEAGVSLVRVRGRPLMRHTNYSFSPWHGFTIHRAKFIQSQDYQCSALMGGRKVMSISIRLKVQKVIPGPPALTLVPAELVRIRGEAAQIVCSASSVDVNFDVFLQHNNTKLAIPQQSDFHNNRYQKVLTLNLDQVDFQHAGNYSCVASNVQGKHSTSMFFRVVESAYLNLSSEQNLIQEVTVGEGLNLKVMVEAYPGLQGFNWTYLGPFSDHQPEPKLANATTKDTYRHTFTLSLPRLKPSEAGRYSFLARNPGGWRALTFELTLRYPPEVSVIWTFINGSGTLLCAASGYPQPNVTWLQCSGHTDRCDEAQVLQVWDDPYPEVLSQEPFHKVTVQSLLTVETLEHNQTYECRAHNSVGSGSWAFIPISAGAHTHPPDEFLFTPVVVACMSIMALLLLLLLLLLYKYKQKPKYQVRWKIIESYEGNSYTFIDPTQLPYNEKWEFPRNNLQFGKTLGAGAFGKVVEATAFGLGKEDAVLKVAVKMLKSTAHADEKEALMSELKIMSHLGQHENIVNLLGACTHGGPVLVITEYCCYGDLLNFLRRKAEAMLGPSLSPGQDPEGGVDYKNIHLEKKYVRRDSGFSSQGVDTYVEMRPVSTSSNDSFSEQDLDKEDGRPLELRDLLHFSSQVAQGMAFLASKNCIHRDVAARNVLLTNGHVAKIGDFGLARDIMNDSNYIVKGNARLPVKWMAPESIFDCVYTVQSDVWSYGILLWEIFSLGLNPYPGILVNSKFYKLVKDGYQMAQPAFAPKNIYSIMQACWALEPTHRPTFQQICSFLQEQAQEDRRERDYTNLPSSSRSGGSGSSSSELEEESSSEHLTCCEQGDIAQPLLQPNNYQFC
Protocol: The assay buffer used was 100 mM 4-(2-hydroxyethyl)piperazine1-ethanesulfonic acid (HEPES), pH 7.5, 1 mM 1,4-dithio-DL-threitol (DTT), 0.01% (v/v) Tween-20. Compounds were diluted in assay buffer containing 4% dimethylsulfoxide (DMSO) just prior to the assay. […] The kinase reaction was initiated by adding 2 μL of 5 mM ATP (Sigma) in assay buffer. The final concentrations in the assay were 10 nM c-fms, 1 mM ATP, 5 mM MgCl2, 2% DMSO. Control reactions were ran in each plate: in positive and negative control wells, assay buffer (made 4% in DMSO) was substituted for the compound; in addition, positive control wells received 1.2 μL of 50 mM ethylenediaminetetraaceticacid (EDTA). The plates were incubated at room temperature for 45 min. At the end of the incubation, the reaction was quenched with 1.2 μL of 50 mM EDTA (EDTA was not added to the positive control wells at this point; see above). Following a 5-min incubation, each well received 10 μL of a 1:1:3 mixture of anti-phosphotyrosine antibody, 10×, PTK green tracer, 10× (vortexed), FP dilution buffer, respectively (all from PanVera, cat. # P2837). The plate was covered, incubated for 30 min at room temperature and the fluorescence polarization was read on the Analyst. The instrument settings were: 485 nm excitation filter; 530 nm emission filter; Z height: middle of well; G factor: 0.93. […] The reported IC50 values are averages of three independent measurements.

SMILES	IC50 (c-fms) [nM]	IC50 ([1]; Mus musculus, BMDM) [nM]	further results
CC1(C)CC=C(c2nc(C3CC(C)(C)OC(C)(C)C3)ccc2NC(=O)c2nc(C#N)c[nH]2)CC1 [Example 15, 4-Cyano-1H-imidazole-2-carboxylic acid[2-(4,4-dimethyl-cyclohex-1-enyl)-6-(2,2,6,6-tetramethyl-tetrahydro-pyran-4-yl)-pyridin-3-yl]-amide]		6.1	Number of steps taken using hind limbs in a thirty second observation period ([2]; Day 19 (before treatment), 3 mg/kg group): 1.7; Number of steps taken using hind limbs in a thirty second observation period ([2]; Day 19 (before treatment), 10 mg/kg group): 1.3; Number of steps taken using hind limbs in a thirty second observation period ([2]; Day 19 (before treatment), 20 mg/kg group): 1.3; Number of steps taken using hind limbs in a thirty second observation period ([2]; Day 32, 3 mg/kg oral b.i.d.): 7.7; Number of steps taken using hind limbs in a thirty second observation period ([2]; Day 32, 10 mg/kg oral b.i.d.): 7.3; Number of steps taken using hind limbs in a thirty second observation period ([2]; Day 32, 20 mg/kg oral b.i.d.): 6; use of hind limbs (function) ([2]; day 32, rats treated with Compound A): used hind limbs in a normal fashion; paw swelling (caliper measurements of paw thickness and visual scores) ([2]; dosing p.o. b.i.d. initiated on day 20 after disease was severe, 3, 10, 20 mpk): caused a reversal of paw swelling; concentration at 2 h (in vivo; 3 mg/kg): 247 ± 22 ng/mL; concentration at 2 h (in vivo; 10 mg/kg): 802 ± 35 ng/mL; concentration at 2 h (in vivo; 20 mg/kg): 1480 ± 70 ng/mL
C[C@]12CC(c3ccc(NC(=O)c4nc(C#N)c[nH]4)c(C4=CCCCC4)n3)C[C@](C)(O1)[C@H](O)[C@@H]2O (stereo partly drawn) [Example 19, 4-Cyano-1H-imidazole-2-carboxylic acid[2-cyclohex-1-enyl-6-[(3-exo)-(6-exo,7-exo-dihydroxy-1,5-dimethyl-8-oxa-bicyclo[3.2.1]oct-3-yl]-pyridin-3-yl]-amidetrifluoroacetic acid salt and 4-Cyano-1H-imidazole-2-carboxylic acid[2-cyclohex-1-enyl-6-[(3-endo)-(6-exo,7-exo-dihydroxy-1,5-dimethyl-8-oxa-bicyclo[3.2.1]oct-3-yl]-pyridin-3-yl]-amidetrifluoroacetic acid salt]	2.9	27	
CC1(C)CC=C(c2nc(C3CC(C)(C)S(=O)(=O)C(C)(C)C3)ccc2NC(=O)c2nc(C#N)c[nH]2)CC1 [Example 21, 4-Cyano-1H-imidazole-2-carboxylic acid[2-(4,4-dimethyl-cyclohex-1-enyl)-6-(2,2,6,6-tetramethyl-1,1-dioxo-hexahydro-1λ^6-thiopyran-4-yl)-pyridin-3-yl]-amide]	8.9	18	
CC1(C)CC=C(c2cc(C3=C[C@@H]4C=C[C@H](C3)O4)ccc2NC(=O)c2ncc(C#N)[nH]2)CC1 [Example 26, N-(4-(8-oxabicyclo[3.2.1]octa-2,6-dien-3-yl)-2-(4,4-dimethylcyclohex-1-enyl)phenyl)-4-cyano-1H-imidazole-2-carboxamide (A) and N-(4-(8-oxabicyclo[3.2.1]octa-3,6-dien-3-yl)-2-(4,4dimethylcyclohex-1-enyl)phenyl)-4cyano-1H-imidazole-2-carboxamide (B)]	7.1		IC50 ([1]; read-out: BMDM IC50): 59 nM
C[C@@H]1C2C=C[C@@H](O2)[C@H](C)[C@@]1(O)c1ccc(NC(=O)c2nc(C#N)c[nH]2)c(C2=CCC(C)(C)CC2)c1 [Example 28]	16	69	
C[C@@H]1C2CC[C@@H](O2)[C@H](C)[C@@]1(O)c1ccc(NC(=O)c2nc(C#N)c[nH]2)c(C2=CCC(C)(C)CC2)c1 [Example 29, 4-Cyano-N-(2-(4,4dimethylcyclohex-1-enyl)-4-[(3-exo)-3-hydroxy-(2-endo,4endo-dimethyl)-1,5-dimethyl-8-oxabicyclo[3.2.1]octan-3-yl)pheny]-1H-imidazole-2-carboxamide]	14	88	

The next lines start with results.

IC50 (c-fms) [nM]	SMILES	IC50 ([1]; Mus musculus, BMDM) [nM]	further results
0.41	CC1(C)CC=C(c2nc(C3C[C@](C)(CO)O[C@](C)(CO)C3)ccc2NC(=O)c2nc(C#N)c[nH]2)CC1 (stereo partly drawn) [Example 20, 4-Cyano-1H-imidazole-2-carboxylic acid[(4-cis)-(2-cis,6-cis-bis-hydroxymethyl-2,6-dimethyl-tetrahydro-pyran-4-yl)-2-(4,4dimethyl-cyclohex-1-enyl)-pyridin-3-yl]-amide trifluoroacetic acid salt and 4-Cyano-1H-imidazole-2-carboxylic acid[(4-trans)-(2-cis,6-cis-bis-hydroxymethyl-2,6-dimethyl-tetrahydro-pyran-4-yl)-2-(4,4-dimethyl-cyclohex-1-enyl)-pyridin-3-yl]-amide trifluoroacetic acid salt]	6.5	
2	CC1(C)CC=C(c2cc(C3CC(C)(C)S(=O)(=O)C(C)(C)C3)ccc2NC(=O)c2nc(C#N)c[nH]2)CC1 [Example 22, 4-Cyano-1H-imidazole-2-carboxylic acid[2-(4,4-dimethyl-cyclohex-1-enyl)-4-(2,2,6,6-tetramethyl-1,1-dioxo-hexahydro-1λ^6-thiopyran-4-yl)-phenyl]-amide]	3.6	
0.66	CC1(C)CC=C(c2cc([C@@]3(O)CC4C=C[C@H](C3)O4)ccc2NC(=O)c2nc(C#N)c[nH]2)CC1 [Example 27, 4-Cyano-N-(2-(4,4-dimethylcyclohex-1-enyl)-4-((3-exo)-3-hydroxy-8-oxabicyclo[3.2.1]oct-6-en-3-yl)phenyl)-1H-imidazole-2-carboxamide]	6.9	
